Measurements from patent USRE39030E1 (Eli Lilly and Company, priority 1997, dated 2006).
Counter-ions that a name gives are not always drawn.

How the values were obtained:
[1] = 60 mg once per week vs 20 mg per day; maintenance therapy after eight weeks of daily dosing; cited from earlier work
[2] = 120 mg dosed biweekly; cited from earlier work
[3] = interaction of fluoxetine with lactose (reducing sugar) over time; assay type: physicochemical; settings: room temperature and accelerated stability conditions (heat)
Excerpt: When used in this description, the term “sugar” refers to a sugar other than a reducing sugar. A reducing sugar is a carbohydrate that reduces Fehling's (or Benedict's) or Tollens' reagent. All monosaccharides are reducing sugars as are most disaccharides with the exception of sucrose. One common sugar used frequently as a binding or filling agent is lactose. […] As discussed below, sucrose is a preferred sugar.

Q: With `CNCCC(Oc1ccc(C(F)(F)F)cc1)c1ccccc1` (stereo not drawn) [fluoxetine hydrochloride] as the molecule, how does the “effectiveness during maintenance therapy” value [1] read?
A: as effective as 20 mg per day

Q: Which results are given for `CNCCC(Oc1ccc(C(F)(F)F)cc1)c1ccccc1` (stereo not drawn) [fluoxetine, N-methyl-3-(p-trifluoromethylphenoxy)-3-phenylpropylamine]?
A: effectiveness for treating recurrent brief depression [2]: ineffective; interaction with lactose [3]: interacts with lactose both at room temperature and under accelerated stability conditions (heat)
